Laboratory results taken from article PMC11802874, “The hypolipidemic effect of MI-883, the combined CAR agonist/ PXR antagonist, in diet-induced hypercholesterolemia model” (Nature Communications, 2025).
Values joined by “and” are separate entries in the source; they are usually repeats but may differ in a detail not shown here. Equal values may be shown once.

How the values were obtained:
[1] = molecular target: PPARγ (Homo sapiens, UniProt P37231); assay: Luciferase reporter gene assay PPARγ, HepG2
PPARγ, sequence (P37231 238-503 limits assumed): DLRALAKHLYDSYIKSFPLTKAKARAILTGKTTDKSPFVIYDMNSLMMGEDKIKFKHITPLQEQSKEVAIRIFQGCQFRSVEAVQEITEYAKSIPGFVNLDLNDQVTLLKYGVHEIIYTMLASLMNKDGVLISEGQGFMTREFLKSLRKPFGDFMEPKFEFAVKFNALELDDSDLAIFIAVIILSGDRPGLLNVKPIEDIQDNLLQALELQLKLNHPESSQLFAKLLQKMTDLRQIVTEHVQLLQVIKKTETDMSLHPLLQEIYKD
Source text: (§1) The luciferase reporter gene assays for FXR, LXRα, LXRβ, THα, GRα, PPARα, PPARδ/β, PPARγ, AhR, VD, ERα, ERβ and mouse Car are described in our recent paper[19]
(§2) Gal4-LBD constructs of tested nuclear receptors have been used together with pGL4.31[luc2P/GAL4UAS/Hygro] luciferase reporter construct and pRL-TK Renilla expression vector (both from Promega, Hercules, USA) in HepG2 cells transfected with Lipofectamine 2000 or 3000 reagents. For GRα and FXR receptors, full-length expression vectors have been used with pGRE-luc or pFXRE-luc luciferase constructs. For the aryl hydrocarbon receptor (AhR), p1A1-luc construct was used with only pRL-TK vector for transfection normalization. A dual reporter assay (Promega, Hercules, USA) was used to analyze both firefly and Renilla luciferase activities.
(§3) Gal4-LBD constructs of tested nuclear receptors have been used together with pGL5-luc luciferase reporter construct and pRL-TK Renilla expression vector in HepG2 cells transfected with Lipofectamine 2000 or 3000 reagents. For GRα and FXR receptors, full-length expression vectors have been used with pGRE-luc or pFXRE-luc luciferase constructs. For the aryl hydrocarbon receptor (AhR), p1A1-luc construct was used with only pRL-TK vector for transfection normalization. […] Bars represent means±S.D. (n=3).

[2] = molecular target: ERβ (Homo sapiens, UniProt Q92731); assay: Luciferase reporter gene assay ERβ, HepG2
ERβ, sequence (Q92731 264-498 limits assumed, species assumed): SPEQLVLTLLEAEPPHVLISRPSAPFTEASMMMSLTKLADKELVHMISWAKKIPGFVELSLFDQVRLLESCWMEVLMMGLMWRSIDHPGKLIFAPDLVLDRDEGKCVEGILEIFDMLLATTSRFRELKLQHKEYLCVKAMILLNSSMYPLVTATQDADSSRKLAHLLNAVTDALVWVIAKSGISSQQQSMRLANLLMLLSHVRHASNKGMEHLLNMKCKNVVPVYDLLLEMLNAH
Source text: as §2, §3

[3] = molecular target: ERα (Homo sapiens, UniProt P03372); assay: Luciferase reporter gene assay ERα, HepG2; type: cell-based
ERα, sequence (P03372 311-547 limits assumed, species assumed): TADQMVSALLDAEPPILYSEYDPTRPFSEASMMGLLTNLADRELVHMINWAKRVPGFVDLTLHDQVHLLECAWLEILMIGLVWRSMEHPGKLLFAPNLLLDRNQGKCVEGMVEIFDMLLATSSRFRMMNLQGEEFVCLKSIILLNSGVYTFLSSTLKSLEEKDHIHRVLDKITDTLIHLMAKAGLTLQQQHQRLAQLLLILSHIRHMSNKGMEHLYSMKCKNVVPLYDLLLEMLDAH
Source text: (see Supplementary Chapter 7).
Thank you for the insightful question and comment. We have corrected the sentence to read:
Thank you for the idea. Yes, we conducted luciferase reporter assays in antagonistic "mode" for several nuclear receptors using their prototype ligands in the revised manuscript (Figure R7).
This information is included in the Supplementary Information.
Treatment with 5 and 10 µM
(1 picture or pasted object on this page, not shown here) […]
nM dexamethasone, 10 µM GW3965 (LXRα agonist), and 10 µM estradiol. Data are presented as a […]

[4] = test system: 3D primary human hepatocyte spheroids; assay: ATP production and spheroid size in 3D PHH spheroids; type: cell-based
Description: Briefly, PHHs were cultivated for 6 days to generate compact spheroids by spontaneous self-aggregation and then half of PHH medium was exchanged for FBS-free PHH medium. 3D PHHs were treated with MI-883 (5 μM) commenced from day 8 within a time range of 8–120 h (time points were 8, 12, 24, 48, 72, and 120 h). Conditioned FBS-free PHH medium was changed every 2–3 days of the treatment. […] Data are presented as the mean ± SD of fold change expression gained from 3D spheroids of three different donors. ATP assay has been performed as described.

[5] = test system: humanized PXR-CAR-CYP3A4/3A7 mice; assay: Hepatic induction study in humanized PXR-CAR-CYP3A4/3A7 mice (i.p.); type: in vivo, mouse
Source text: In the induction experiments, […] was sampled from the gallbladder.

[6] = test system: humanized PXR-CAR-CYP3A4/3A7 mice, liver; assay: UHPSFC/MS liver lipidomics (HFD study); type: in vivo, mouse
Description: Solvents, additives, lipid class internal standards, liver sample preparation, and UHPSFC/MS measurement are described in detail in Supplementary, Chapter 19. Lipid separation using UHPSFC (Acquity UPC^2 instrument from Waters; Milford, MA, USA) was performed on column Viridis BEH (100 × 3 mm, 1.7 µm) with the following conditions: the column temperature 60 °C, the flow rate 1.9 mL/min, and the injection volume 1 µL. The following linear gradient was performed using scCO2 and methanol (30 mM ammonium acetate + 1% of water) used as a modifier: 0 min – 1% modifier, 1.5 min – 16% modifier, 4 min – 51% modifier, 7 min – 51% modifier, 7.51 min – 1% modifier, and the equilibration with the total run time of 8 min. The automatic back-pressure regulator (ABPR) was set to 1800 psi and the autosampler temperature to 4 °C. Methanol with 30 mM ammonium acetate and 1% of water was used as the make-up solvent with a flow rate of 0.25 mL/min. The SFC was connected with the hybrid quadrupole - time of flight (QTOF) mass spectrometer Synapt G2-Si (Waters; Milford, MA, USA) with following conditions: sensitivity mode applying positive ESI mode, the mass range of m/z 150–1200, the capillary voltage of 3 kV, the sampling cone of 20 V, the source offset of 90 V, the source temperature of 150 °C, the desolvation temperature of 500 °C, the cone gas flow of 50 L/h, the desolvation gas flow of 1000 L/h, and the nebulizer gas flow of 4 bar. Mass spectra were acquired in the continuum mode with a scan time of 0.5 s and the peptide leucine enkephalin as the lock mass.
All UHPSFC/MS-QTOF spectra were acquired using MassLynx and processed as follows: noise reduction using the Compression tool followed by the lock mass correction and the conversion from continuum to centroid mode using the MassLynx tool (Accurate mass measure). […] Data were further analyzed using lipidr package. PCA and log2 fold change values were calculated using log2 transformed and Pareto scaled data. […]

[7] = molecular target: aryl hydrocarbon receptor (AhR) (Homo sapiens, UniProt P35869); assay: Luciferase reporter gene assay AhR (p1A1-luc), HepG2
aryl hydrocarbon receptor (AhR), sequence (P35869 11-848): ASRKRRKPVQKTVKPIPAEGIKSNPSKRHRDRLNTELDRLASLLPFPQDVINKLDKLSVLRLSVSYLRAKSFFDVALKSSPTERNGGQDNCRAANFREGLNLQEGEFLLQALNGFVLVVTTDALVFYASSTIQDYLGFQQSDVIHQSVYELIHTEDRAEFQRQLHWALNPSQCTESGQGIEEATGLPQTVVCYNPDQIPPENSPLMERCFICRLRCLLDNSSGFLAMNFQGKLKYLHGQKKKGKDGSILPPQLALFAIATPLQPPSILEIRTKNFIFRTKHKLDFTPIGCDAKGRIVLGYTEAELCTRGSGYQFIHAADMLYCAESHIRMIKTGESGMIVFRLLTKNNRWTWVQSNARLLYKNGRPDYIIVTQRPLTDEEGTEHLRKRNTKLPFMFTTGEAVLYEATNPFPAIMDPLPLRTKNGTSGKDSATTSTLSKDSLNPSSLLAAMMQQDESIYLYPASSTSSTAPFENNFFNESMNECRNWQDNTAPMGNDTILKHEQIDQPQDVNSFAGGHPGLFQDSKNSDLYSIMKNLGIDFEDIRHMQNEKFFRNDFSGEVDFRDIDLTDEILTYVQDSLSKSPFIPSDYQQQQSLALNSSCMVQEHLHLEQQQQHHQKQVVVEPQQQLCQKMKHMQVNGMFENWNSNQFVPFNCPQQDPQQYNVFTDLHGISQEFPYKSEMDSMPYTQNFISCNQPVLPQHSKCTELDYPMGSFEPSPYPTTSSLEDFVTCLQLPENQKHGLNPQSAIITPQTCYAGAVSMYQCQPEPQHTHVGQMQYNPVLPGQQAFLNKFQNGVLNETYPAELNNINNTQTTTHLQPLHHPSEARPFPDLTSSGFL
Source text: as §1, §2, §3

[8] = molecular target: T1, human CAR ligand-binding domain (LBD) (Homo sapiens, UniProt Q14994); assay: TR-FRET CAR coactivator assay (LanthaScreen); type: biochemical
T1 construct: purchased ThermoFisher Scientific PV4836
T1 sequence (Q14994 109-348 isoform Q14994-2 limits assumed, other chains not shown): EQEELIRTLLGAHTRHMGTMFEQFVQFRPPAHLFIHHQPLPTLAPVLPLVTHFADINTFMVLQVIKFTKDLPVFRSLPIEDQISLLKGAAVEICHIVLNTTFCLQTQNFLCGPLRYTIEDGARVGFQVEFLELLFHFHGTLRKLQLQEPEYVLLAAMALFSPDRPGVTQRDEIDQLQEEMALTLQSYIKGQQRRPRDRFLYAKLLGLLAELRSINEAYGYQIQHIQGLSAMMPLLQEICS

[9] = single agents i.p.: Rif 3×5 mg/kg, CITCO 10 mg/kg two doses, MI-883 10 mg/kg 3 days

NC(=O)c1cc(Cn2cc(-c3c(-c4ccc(Cl)cc4)nc4cc(F)ccn34)nn2)ccc1Cl [MI-883, 2-chloro-5-((4-(2-(4-chlorophenyl)-7-fluoroimidazo[1,2-a]pyridin-3-yl)-1H-1,2,3-triazol-1-yl)methyl)benzamide]
NRs assays: PPARy (relative to ctrl, replicates) [1]: 0.61 and 0.89 and 1.05 | NRs assays: ERbeta (relative to ctrl, replicates) [2]: 0.84 and 0.86 and 0.88 | NRs assays: ERalpha (relative to ctrl, replicates) [3]: 0.77 and 1.06 and 0.79 | inhibition of estrogen receptor alpha (ERα), antagonistic mode ([3]; 10 μM MI-883): weak inhibitor | spheroid size or ATP production in 3D PHHs ([4]; 5 μM, 72 h): did not see any decrease | Fig. 7c readout relative to control (control 100) ([4]; 5 uM, three replicates, control = 100): 92.8 and 153.7 and 124.1 | fold mRNA induction CYP3A4 in livers of humanized PXR-CAR-CYP3A mice ([5]; MI-883 10 mg/kg i.p. 3 days, not significant): 1.9 fold | hepatic CYP3A4 mRNA, hPXR/hCAR/CYP3A4/7 mice (Fig. 3e), individual animals ([5]; Rif + MI-883 combination i.p.): 15.1375 and 21.1204 and 7.333 and 13.3527 | hepatic Cyp2b10 mRNA, hPXR/hCAR/CYP3A4/7 mice (Fig. 3e), individual animals ([5]; Rif + MI-883 combination i.p.): 37.4609 and 22.8189 and 29.2533 and 22.0407 | hepatic CYP3A4 mRNA, hPXR/hCAR/CYP3A4/7 mice (Fig. 3e), individual animals [5, 9]: 2.527 and 2.124 and 1.135 | hepatic Cyp2b10 mRNA, hPXR/hCAR/CYP3A4/7 mice (Fig. 3e), individual animals [5, 9]: 5.955 and 3.722 and 12.2143 | Cyp2b10 mRNA in the liver, preliminary studies ([5]; single dose of 5 mg/kg in oral gavage): significant induction | cholesteryl esters (CE) in livers, UHPSFC/MS lipidomics [6]: not significantly altered | total and some individual lysophosphatidylcholine (LPC) levels in liver [6]: statistically significant decrease | liver triglycerides with long and highly unsaturated fatty acids (TG 60:12, TG 60:13) ([6]; male mice): significant increase | NRs assays: AhR (relative to ctrl, replicates) [7]: 0.69 and 0.85 and 0.64 | TR-FRET CAR Coactivator assay, mean signal (Fig. 1b) ([8]; 100pM): 1 | TR-FRET CAR Coactivator assay, mean signal (Fig. 1b) ([8]; 1nM): 1.012 | TR-FRET CAR Coactivator assay, mean signal (Fig. 1b) ([8]; 10nM): 1.235 | TR-FRET CAR Coactivator assay, mean signal (Fig. 1b) ([8]; 100nM): 1.572 | TR-FRET CAR Coactivator assay, mean signal (Fig. 1b) ([8]; 0.5μM): 1.870 | TR-FRET CAR Coactivator assay, mean signal (Fig. 1b) ([8]; 1 μM): 2.020 | TR-FRET CAR Coactivator assay, mean signal (Fig. 1b) ([8]; 10 μM): 2.020 | TR-FRET CAR Coactivator assay, mean signal (Fig. 1b) ([8]; 30 μM): 2.046 | EC50 ([8]; recombinant CAR LBD): 73 ± 20 nM
